According to patent US20080076824A1, “Compounds That Inhibit Replication Of Human Immunodeficiency Virus” (priority 2004, published 2008):
Where “and” joins values, the source holds several entries; their conditions need not be identical. Equal entries are not always repeated. Structures can show the parent of a compound that is named as a salt.

Test: Microdose study of 14C-AlphaHGA in healthy volunteers, plasma pharmacokinetics (AMS)
Type: in vivo, human
Conditions: plasma
Procedure: In this example, the pharmacokinetics (PK) and oral bioavailability of AlphaHGA in adult healthy volunteers following a single ‘microdose’ in a sequence-randomized, cross-over study design (two periods 7 days apart) was determined. Clinical experiments were conducted with low-level radiolabelled (^14C) AlphaHGA administered intravenously (IV) orally (PO) with serial blood and urine samples were collected for concentration analysis utilizing accelerator mass spectrometry (AMS).
Accordingly, eight subjects were enrolled into a single dose cross-over study. The subjects were randomly assigned to one of two administration sequences. Subjects that were assigned to sequence 1 received AlphaHGA as an oral preparation first (Period 1) followed by the intravenous (IV) preparation 1 week later (Period 2). Subjects assigned to sequence 2 received AlphaHGA as an intravenous preparation first followed by the oral preparation 1 week later. Four subjects were assigned to sequence 1 and four subjects were assigned to sequence 2.
For both oral and IV doses subjects were administered 100 nCi (3.7 Kbq) of alphaHGA, which was determined to contain 1.602888×10ˆ6 fmol of ^14C. The specific activity of each dose was 46.619 MBq/mol (or 1.260 mCi/mol). A stock blend of ^14C-labelled alphaHGA was produced prior to the first study period. The actual formulations used for dosing were prepared on the morning prior to each study period. The infusion was a single bolus injection with both the infusion and flush were completed in less than 30 seconds.
Blood (5 ml) was collected following the administration of AlphaHGA orally or as an IV bolus at the following times: pre-dose (T=0) and 15, 30, 45, 60 minutes, and at 2, 3, 4, 6, 8, 10, 12, 16, 24 hours post-dose. All of the 224 scheduled blood samples were obtained. Blood specimens were drawn by intravenous in-dwelling catheter into 2×10 mL EDTA containing Vacutainer tubes and RBC's separated by centrifugation.
Plasma specimens (30 μL) were analyzed directly via the combustive procedure without further chemical manipulation. For the purposes of calculating ^14C concentration per volume of plasma, a general carbon content of 45% (dry mass) was applied. The urine was mixed with equal volumes (0.5 mL) of a sucrose carbon diluent solution (200 g/L) and mixed by inversion in a disposable polypropylene centrifuge tube. A 20-μL sample was graphitized for AMS analysis according to standard procedures. The mass fraction of the urine represented in the measured sample was inverted and multipled by the ^14C contents above background derived from the AMS measurement to calculate the ^14C content in the total urine void. A density value of 1 g/mL for urine was assumed to calculate its volume from the recorded masses.
Pharmacokinetic parameters were estimated by noncompartmental analysis employing the PK software WinNonlin version 4.1 (Pharsight Corporation, Palo Alto, Calif.). Statistical analyses were performed using either WinNonlin 4.1 or SPlus 2000 (Insightful Inc, Seattle, Wash.). All parameter calculations are reported from observed values and not from predicted values. However, observed and predicted values were very close and parameter estimates from both approaches were nearly equal.
. Values for the following PK parameters were estimated from plasma alphaHGA concentrations:
Maximum observed concentration (Cmax) and the time to reach Cmax (Tmax), the last quantified concentration (Clast), the time to Clast (Tlast), and time to the first quantified concentration (Tfirst) came from the experimentally observed values.
Terminal elimination rate constant (λz), was estimated from log-linear regression analysis of the apparent terminal phase of the plasma concentration-time profile. Weighting for the regression was 1/Y^2. The associated plasma half-life (T½) was calculated as T½=ln 2/λz. The point employed for estimating λz, were selected by the WinNonlin default curve stripping algorithm. […]

[1] = route iv, individual subjects 1-8, period 1 or 2
[2] = route iv, individual subjects 1-8, period 1 or 2, hydrochloride
[3] = route po, individual subjects 1-8, period 1 or 2, hydrochloride

NC(=O)C(N)O (stereo not drawn) [AlphaHGA, α-Hydroxy-glycinamide hydrochloride]
Tmax (Route iv, Max): 0.50 h | AUC % Extrap (Route iv, Mean): 14.04% | AUCTmax (Route iv, Mean): 0.00876 nM·h | AUCinf (Route iv, Mean): 0.36141 nM·h | AUClast (Route iv, Mean): 0.31056 nM·h | Az (Route iv, Mean): 0.070 h⁻¹ | Clast (Route iv, Mean): 0.00343 nM | Cmax (Route iv, Mean): 0.0544 nM | T ½ (Route iv, Mean): 10.11 h | Tmax (Route iv, Mean): 0.28 h | AUC % Extrap (Route iv, Min): 9.23% | AUCTmax (Route iv, Min): 0.00422 nM·h | AUCinf (Route iv, Min): 0.27962 nM·h | AUClast (Route iv, Min): 0.24083 nM·h | Az (Route iv, Min): 0.054 h⁻¹ | Clast (Route iv, Min): 0.00267 nM | Cmax (Route iv, Min): 0.0337 nM | T ½ (Route iv, Min): 8.26 h | Tmax (Route iv, Min): 0.25 h | AUC % Extrap (Route po, Max): 16.54% | AUCTmax (Route po, Max): 0.04903 nM·h | AUCinf (Route po, Max): 0.4907 nM·h | AUClast (Route po, Max): 0.46442 nM·h | Az (Route po, Max): 0.118 h⁻¹ | Clast (Route po, Max): 0.00459 nM | Cmax (Route po, Max): 0.076 nM | T ½ (Route po, Max): 11.29 h | Tmax (Route po, Max): 2.00 h | AUC % Extrap (Route po, Mean): 13.07% | AUCTmax (Route po, Mean): 0.02176 nM·h | AUCinf (Route po, Mean): 0.37884 nM·h | AUClast (Route po, Mean): 0.33063 nM·h | Az (Route po, Mean): 0.076 h⁻¹ | Clast (Route po, Mean): 0.00353 nM | Cmax (Route po, Mean): 0.0507 nM | T ½ (Route po, Mean): 9.40 h | Tmax (Route po, Mean): 0.81 h | AUC % Extrap (Route po, Min): 5.36% | AUCTmax (Route po, Min): 0.01199 nM·h | AUCinf (Route po, Min): 0.31704 nM·h | AUClast (Route po, Min): 0.26699 nM·h | Az (Route po, Min): 0.061 h⁻¹ | Clast (Route po, Min): 0.00286 nM | Cmax (Route po, Min): 0.0357 nM | T ½ (Route po, Min): 5.88 h | Tmax (Route po, Min): 0.50 h | Tfirst [1]: 0.25 h | Tlast [1]: 24 h | AUCTmax [2]: 0.00422 nM·h and 0.00683 nM·h and 0.00902 nM·h and 0.00647 nM·h and 0.02396 nM·h and 0.00615 nM·h and 0.00528 nM·h and 0.00813 nM·h | AUCinf [2]: 0.27962 nM·h and 0.32862 nM·h and 0.36703 nM·h and 0.32974 nM·h and 0.43166 nM·h and 0.35514 nM·h and 0.39463 nM·h and 0.40482 nM·h | AUClast [2]: 0.24083 nM·h and 0.29153 nM·h and 0.32782 nM·h and 0.29111 nM·h and 0.39184 nM·h and 0.28587 nM·h and 0.32585 nM·h and 0.32966 nM·h | Clast [2]: 0.00267 nM and 0.00304 nM and 0.00292 nM and 0.00299 nM and 0.00334 nM and 0.00375 nM and 0.00462 nM and 0.0041 nM | Cmax [2]: 0.0337 nM and 0.0546 nM and 0.0722 nM and 0.0517 nM and 0.0668 nM and 0.0492 nM and 0.0422 nM and 0.065 nM | T1/2 [2]: 10.07 h and 8.46 h and 9.31 h and 8.96 h and 8.26 h and 12.80 h and 10.32 h and 12.71 h | Tmax [2]: 0.25 h and 0.5 h | λz [2]: 0.069 h⁻¹ and 0.082 h⁻¹ and 0.075 h⁻¹ and 0.077 h⁻¹ and 0.084 h⁻¹ and 0.054 h⁻¹ and 0.067 h⁻¹ and 0.055 h⁻¹ | Tlast (route po, individual subjects 1-8, period 1 or 2): 24 h | AUCTmax [3]: 0.0122 nM·h and 0.03149 nM·h and 0.01712 nM·h and 0.04903 nM·h and 0.02379 nM·h and 0.01199 nM·h and 0.01353 nM·h and 0.01489 nM·h | AUCinf [3]: 0.32094 nM·h and 0.4907 nM·h and 0.31704 nM·h and 0.41499 nM·h and 0.40394 nM·h and 0.32388 nM·h and 0.3913 nM·h and 0.36795 nM·h | AUClast [3]: 0.28221 nM·h and 0.46442 nM·h and 0.26699 nM·h and 0.34636 nM·h and 0.34963 nM·h and 0.27076 nM·h and 0.34145 nM·h and 0.32318 nM·h | Clast [3]: 0.00286 nM and 0.0031 nM and 0.00341 nM and 0.00459 nM and 0.00395 nM and 0.00326 nM and 0.00376 nM and 0.0033 nM | Cmax [3]: 0.0406 nM and 0.076 nM and 0.0357 nM and 0.0392 nM and 0.0494 nM and 0.0479 nM and 0.0581 nM and 0.0584 nM | T1/2 [3]: 9.39 h and 5.88 h and 10.18 h and 10.36 h and 9.53 h and 11.29 h and 9.19 h and 9.40 h | Tfirst [3]: 0.25 hr (7×) and 0.5 hr | Tmax [3]: 0.5 h and 0.75 h and 1 h and 2 h | λz [3]: 0.074 hr^−1 (2×) and 0.118 hr^−1 and 0.068 hr^−1 and 0.067 hr^−1 and 0.073 hr^−1 and 0.061 hr^−1 and 0.075 hr^−1
